Experimental data as given in patent US10947205B2, “Oxazolidinone compounds and methods of use thereof as antibacterial agents” (priority 2015, dated 2021).
Converted amounts (≈) assume the structure as drawn. Where two headings read alike, the source gives them in different places.

What was measured:
[1] = test system: Mycobacterium tuberculosis (Mtb); experiment: microbe, parasite or virus in culture; format: cell-based, Mycobacterium tuberculosis H37Rv (Mtb-GFP); details: 168 h
[2] = test system: Staphylococcus aureus (methicillin resistant, MB5393, COL); experiment: microbe, parasite or virus in culture; format: cell-based; details: MRSA, 22 h, read-out: MRSA COL MITC95 μM
Method: Inhibition of Staphylococcus aureus (methicillin resistant, MB5393, COL) growth was assessed in cation adjusted Mueller Hinton II broth (CAMHB) in 384-well microtiter plates. Bacteria were dispensed into microtiter plates at approximately 5×10^5 actively growing cells in 49 μL volumes per well. Cells were exposed to 2-fold serial dilutions of compounds from 200 μM to 0.195 μM and growth compared to drug-free control. Compound dilutions were prepared in 100% dimethylsulfoxide and added to microtiter plates in 1 μL volumes per well. Full growth control wells contained dimethylsufoxide and bacteria. No growth control wells contained dimethysulfoxide and CAMHB but no bacteria. Growth inhibition was assessed after a 22-hour growth period by measuring optical density using a spectrophotometer. The lowest concentration of test compound required to inhibit 95% of the growth of the bacteria was defined as the MITC95. All studies were done in a BSL2 facility.

[3] = test system: mitochondrial protein synthesis in HepG2 cells (COX-I / SDH-A); experiment: Mitochondrial protein synthesis assay; format: cell-based; details: Homo sapiens, read-out: MPS IC50_μM
Method: (§1) Inhibition of mitochondrial protein synthesis was assessed in HepG2 cells by comparing the levels of two subunits of oxidative phosphorylation enzyme complexes, subunit I of Complex IV (COX-I) and the 70 kDa subunit of Complex II (SDH-A). COX-I is mitochondrial DNA encoded and SDH-A is nuclear DNA encoded. HepG2 cells were seeded in 96-well collagen coated plates at 8,000 cells per well and exposed to 2-fold serial dilutions of compounds from 100 LM to 6.25 μM. Microtiter plates were incubated for approximately 5 replication cycles (4 days) prior to assessment of protein levels using a kit as described by the manufacturer (ab 110217 MitoBiogenesis In Cell ELISA Kit, Abcam, Cambridge, Mass.). Inhibition of mitochondrial protein synthesis was expressed as a ratio of COX-1 to SDH-A levels.
as §1, with “μM” for “LM”

[4] = pH 6.8, read-out: Mtb Cho MITC95_μM
[5] = pH 6.8, read-out: Mtb Glu MITC95_μM
[6] = 96 h, HepG2 cells, 4 days, ratio of COX-1 to SDH-A levels

| SMILES | MIC [1, 4] | MIC [1, 5] | MIC [2] | IC50 [3, 6] | IC50 ([3]; HepG2, 96 h) |
| --- | --- | --- | --- | --- | --- |
| COC(=O)NC[C@H]1CN(c2ccc(-c3ccc(SC)cc3)c(F)c2)C(=O)O1 [Example 62, (S)-methyl ((3-(2-fluoro-4′-(methylthio)-[1,1′-biphenyl]-4-yl)-2-oxooxazolidin-5-yl)methyl)carbamate] | 0.04 µM (≈ 0.0156 µg/mL) | 0.04 µM (≈ 0.0156 µg/mL) | 200 µM (≈ 78.1 µg/mL) | 10 µM |  |
| NC[C@H]1CN(c2ccc(-c3ccc(F)nc3)c(F)c2)C(=O)O1 [Example 19, (5S)-5-(aminomethyl)-3-[3-fluoro-4-(6-fluoropyridin-3-yl)phenyl]-1,3-oxazolidin-2-one] | 0.09 µM (≈ 0.0275 µg/mL) | 0.485 µM (≈ 0.148 µg/mL) | 200 µM (≈ 61.1 µg/mL) | > 20 µM |  |
| NC[C@H]1CN(c2ccc(-c3ccn4ncnc4c3)c(F)c2)C(=O)O1 [Example 8, (5S)-5-(aminomethyl)-3-(3-fluoro-4-[1,2,4]triazolo[1,5-a]pyridin-7-ylphenyl)-1,3-oxazolidin-2-one] | 0.04 µM (≈ 0.0131 µg/mL) | 0.04 µM (≈ 0.0131 µg/mL) | 200 µM (≈ 65.5 µg/mL) | > 20 µM |  |
| CSc1ccc(-c2c(F)cc(N3C[C@H](CNC(C)=O)OC3=O)cc2F)cc1 [Example 47, (S)—N-((3-(2,6-difluoro-4′-(methylthio)-[1,1′-biphenyl]-4-yl)-2-oxooxazolidin-5-yl)methyl)acetamide] | 0.01 µM (≈ 0.00392 µg/mL) | 0.03 µM (≈ 0.0118 µg/mL) | 0.781 µM (≈ 0.307 µg/mL) | > 20 µM |  |
| CSc1ccc(-c2ccc(N3C[C@H](Cn4cncn4)OC3=O)cc2F)cc1 [Example 43, (R)-5-((1H-1,2,4-triazol-1-yl)methyl)-3-(2-fluoro-4′-(methylthio)-[1,1′-biphenyl]-4-yl)oxazolidin-2-one] | 0.19 µM (≈ 0.073 µg/mL) | 0.58 µM (≈ 0.223 µg/mL) | 200 µM (≈ 76.9 µg/mL) | > 20 µM |  |
| CS(=O)(=O)c1ccc(-c2ccc(N3C[C@H](CN)OC3=O)cc2F)cc1 [Example 4, (5S)-5-(aminomethyl)-3-[2-fluoro-4′-(methylsulfonyl)biphenyl-4-yl]-1,3-oxazolidin-2-one] | 0.09 µM (≈ 0.0328 µg/mL) | 0.04 µM (≈ 0.0146 µg/mL) | 200 µM (≈ 72.9 µg/mL) | 22 µM |  |
| NC[C@H]1CN(c2ccc(-c3ccc4c(c3)CNC4=O)c(F)c2)C(=O)O1 [Example 34, 5-{4-[(5S)-5-(aminomethyl)-2-oxo-1,3-oxazolidin-3-yl]-2-fluorophenyl}-2,3-dihydro-1H-isoindol-1-one] | 0.04 µM (≈ 0.0137 µg/mL) | 0.04 µM (≈ 0.0137 µg/mL) | 200 µM (≈ 68.3 µg/mL) | > 20 µM |  |
| NC[C@H]1CN(c2ccc(-c3cnn4ncccc34)c(F)c2)C(=O)O1 [Example 38, (5S)-5-(aminomethyl)-3-(3-fluoro-4-pyrazolo[1,5-b]pyridazin-3-ylphenyl)-1,3-oxazolidin-2-one] | 0.39 µM (≈ 0.128 µg/mL) | 0.14 µM (≈ 0.0458 µg/mL) | 200 µM (≈ 65.5 µg/mL) | > 20 µM |  |
| CS(=O)(=O)Nc1ccc(-c2ccc(N3C[C@H](CN)OC3=O)cc2F)cc1 [Example 17, N-{4′-[(5S)-5-(aminomethyl)-2-oxo-1,3-oxazolidin-3-yl]-2′-fluorobiphenyl-4-yl}methanesulfonamide] | 0.29 µM (≈ 0.11 µg/mL) | 0.09 µM (≈ 0.0341 µg/mL) | 200 µM (≈ 75.9 µg/mL) | > 20 µM |  |
| CSc1ccc(-c2ccc(N3C[C@H](COc4ccon4)OC3=O)cc2F)cc1 [Example 49, (R)-3-(2-fluoro-4′-(methylthio)-[1,1′-biphenyl]-4-yl)-5-((isoxazol-3-yloxy)methyl)oxazolidin-2-one] | 0.58 µM (≈ 0.232 µg/mL) | 0.58 µM (≈ 0.232 µg/mL) | 200 µM (≈ 80.1 µg/mL) | > 20 µM |  |
| NC[C@H]1CN(c2ccc(-c3ccc(S(N)(=O)=O)cc3)c(F)c2)C(=O)O1 [Example 6, 4′-[(5S)-5-(aminomethyl)-2-oxo-1,3-oxazolidin-3-yl]-2′-fluorobiphenyl-4-sulfonamide] | 0.04 µM (≈ 0.0146 µg/mL) | 0.04 µM (≈ 0.0146 µg/mL) | 100 µM (≈ 36.5 µg/mL) | > 20 µM |  |
| NC[C@H]1CN(c2ccc(-c3cccc(N4CCS(=O)(=O)CC4)c3)c(F)c2)C(=O)O1 [Example 21, (5S)-5-(aminomethyl)-3-[3′-(1,1-dioxidothiomorpholin-4-yl)-2-fluorobiphenyl-4-yl]-1,3-oxazolidin-2-one] | 1.5 µM (≈ 0.629 µg/mL) | 0.39 µM (≈ 0.164 µg/mL) | 200 µM (≈ 83.9 µg/mL) | 25 µM |  |
| CSc1ccc(-c2ccc(N3C[C@H](Cn4cccn4)OC3=O)cc2F)cc1 [Example 46, (5R)-3-[2-fluoro-4′-(methylsulfanyl)biphenyl-4-yl]-5-(1H-pyrazol-1-ylmethyl)-1,3-oxazolidin-2-one] | 0.29 µM (≈ 0.111 µg/mL) | 0.585 µM (≈ 0.224 µg/mL) | 200 µM (≈ 76.7 µg/mL) | > 20 µM |  |
| CSc1ccc(-c2ccc(N3C[C@H](CN)OC3=O)cc2F)cc1 [Example 1, (S)-5-(aminomethyl)-3-(2-fluoro-4′-(methylthio)-[1,1′-biphenyl]-4-yl)oxazolidin-2-one] | 0.03 µM (≈ 0.00997 µg/mL) | 0.04 µM (≈ 0.0133 µg/mL) | 25 µM (≈ 8.31 µg/mL) | 12.2 µM |  |
| NC[C@H]1CN(c2ccc(-c3ccc4cc[nH]c4c3)c(F)c2)C(=O)O1 [Example 27, (5S)-5-(aminomethyl)-3-[3-fluoro-4-(1H-indol-6-yl)phenyl]-1,3-oxazolidin-2-one] | 0.78 µM (≈ 0.254 µg/mL) | 0.39 µM (≈ 0.127 µg/mL) | 200 µM (≈ 65.1 µg/mL) | > 50 µM |  |
| CSc1ccc(-c2ccc(N3C[C@H](Cn4cnnn4)OC3=O)cc2F)cc1 [Example 44, (5R)-3-[2-fluoro-4′-(methylsulfanyl)biphenyl-4-yl]-5-(1H-tetrazol-1-ylmethyl)-1,3-oxazolidin-2-one] | 0.04 µM (≈ 0.0154 µg/mL) | 0.19 µM (≈ 0.0732 µg/mL) | 200 µM (≈ 77.1 µg/mL) | > 20 µM |  |
| NC[C@H]1CN(c2ccc(-c3ccnc(Cl)c3)c(F)c2)C(=O)O1 [Example 30, (5S)-5-(aminomethyl)-3-[4-(2-chloropyridin-4-yl)-3-fluorophenyl]-1,3-oxazolidin-2-one] | 0.39 µM (≈ 0.125 µg/mL) | 0.09 µM (≈ 0.029 µg/mL) | 200 µM (≈ 64.3 µg/mL) | > 20 µM |  |
| NC[C@H]1CN(c2ccc(-c3cccs3)c(F)c2)C(=O)O1 [Example 56, (S)-5-(aminomethyl)-3-(3-fluoro-4-(thiophen-2-yl)phenyl)oxazolidin-2-one] | 0.39 µM (≈ 0.114 µg/mL) | 0.39 µM (≈ 0.114 µg/mL) | 100 µM (≈ 29.2 µg/mL) | > 20 µM |  |
| CCNC(=O)NC[C@H]1CN(c2ccc(-c3ccc(SC)cc3)c(F)c2)C(=O)O1 [Example 58, (S)-1-ethyl-3-((3-(2-fluoro-4′-(methylthio)-[1,1′-biphenyl]-4-yl)-2-oxooxazolidin-5-yl)methyl)urea] | 0.19 µM (≈ 0.0767 µg/mL) | 0.58 µM (≈ 0.234 µg/mL) | 200 µM (≈ 80.7 µg/mL) |  | > 20 µM |
| NC[C@H]1CN(c2ccc(-c3ccc(C(N)=O)cc3)c(F)c2)C(=O)O1 [Example 2, 4′-[(5S)-5-(aminomethyl)-2-oxo-1,3-oxazolidin-3-yl]-2′-fluorobiphenyl-4-carboxamide] | 0.03 µM (≈ 0.00988 µg/mL) | 0.02 µM (≈ 0.00659 µg/mL) | 200 µM (≈ 65.9 µg/mL) | > 25 µM |  |
| Cn1cc(-c2ccc(N3C[C@H](CN)OC3=O)cc2F)cn1 [Example 37, (5S)-5-(aminomethyl)-3-[3-fluoro-4-(1-methyl-1H-pyrazol-4-yl)phenyl]-1,3-oxazolidin-2-one] | 0.39 µM (≈ 0.113 µg/mL) | 0.29 µM (≈ 0.0842 µg/mL) | 200 µM (≈ 58.1 µg/mL) | > 20 µM |  |
| NC[C@H]1CN(c2ccc(-c3ccc4nncn4c3)c(F)c2)C(=O)O1 [Example 9, (5S)-5-(aminomethyl)-3-(3-fluoro-4-[1,2,4]triazolo[4,3-a]pyridin-6-ylphenyl)-1,3-oxazolidin-2-one] | 0.14 µM (≈ 0.0458 µg/mL) | 0.09 µM (≈ 0.0295 µg/mL) | 200 µM (≈ 65.5 µg/mL) | > 20 µM |  |
| NC[C@H]1CN(c2ccc(-c3ccnc4[nH]ccc34)c(F)c2)C(=O)O1 [Example 31, (5S)-5-(aminomethyl)-3-[3-fluoro-4-(1H-pyrrolo[2,3-b]pyridin-4-yl)phenyl]-1,3-oxazolidin-2-one] | 0.78 µM (≈ 0.255 µg/mL) | 0.39 µM (≈ 0.127 µg/mL) | 200 µM (≈ 65.3 µg/mL) | > 20 µM |  |
| COc1ncc(-c2ccc(N3C[C@H](CN)OC3=O)cc2F)cn1 [Example 28, (5S)-5-(aminomethyl)-3-[3-fluoro-4-(2-methoxypyrimidin-5-yl)phenyl]-1,3-oxazolidin-2-one] | 1.14 µM (≈ 0.363 µg/mL) | 0.3 µM (≈ 0.0955 µg/mL) | 200 µM (≈ 63.7 µg/mL) | > 100 µM |  |
